# Reference: patent publication US9512075B2 (OKAYAMA UNIVERSITY, priority 2012, dated 2016)
# Where two headings read alike, the source gives them in different places.
# Experiments:
# Assay type in all cases: cell-based
# [1] = system: Staphylococcus aureus Smith strain; test: MIC for Staphylococcus aureus Smith strain; conditions: read-out: MIC Straphyrococcus aureus Smith
# [2] = system: Staphylococcus aureus 209P strain; test: MIC for Staphylococcus aureus 209P strain; conditions: Staphylococcus aureus; 209P strain; regular bouillon medium, 37° C. overnight, turbidity; read-out: MIC Straphyrococcus aureus 209P
# [3] = system: Staphylococcus aureus MRSA No. 17 (methicillin-resistant Staphylococcus aureus: MRSA); test: MIC for Staphylococcus aureus MRSA No. 17; conditions: read-out: MIC Straphyrococcus aureus MRSA No. 17 (MRSA)
# [4] = system: Enterococcus faecalis 5038 strain; test: MIC for Enterococcus faecalis 5038 strain; conditions: read-out: MIC Enterococcus faecalis 5038
# [5] = system: Enterococcus faecalis NCTC12201 strain (vancomycin-resistant Enterococcus: VRE); test: MIC for Enterococcus faecalis NCTC12201 strain (VRE); conditions: read-out: MIC Enterococcus faecalis NCTC 12201 (VRE)
# [6] = system: Clostridium difficile JCM1296 strain; test: microbe, parasite or virus in culture; conditions: Clostridioides difficile, JCM1296, read-out: MIC Clostridium difficile JCM1296
# [7] = system: Clostridium perfringens PB6K strain; test: microbe, parasite or virus in culture; conditions: Clostridium perfringens, PB6KSTRAIN, read-out: MIC Clostridium perfringens PB6K, PB6K strain; CD medium, 37° C. overnight, 10% CO2-containing anaerobic conditions
# [8] = system: Escherichia coli K-12 strain; test: MIC for Escherichia coli K-12 strain; conditions: Escherichia coli, K12STRAIN; K-12 strain; regular bouillon medium, 37° C. overnight, turbidity; read-out: MIC Escherichia coli K12
# [9] = system: Escherichia coli BE1121 strain; test: MIC for Escherichia coli BE1121 strain; conditions: Escherichia coli, BE1121STRAIN; BE1121 strain; regular bouillon medium, 37° C. overnight, turbidity; read-out: MIC Escherichia coli BE1121
# [10] = Smith strain, regular bouillon medium, 37° C. overnight, turbidity
# [11] = MRSA No. 17, regular bouillon medium, 37° C. overnight, turbidity
# [12] = 5038 strain, Heart Infusion Broth medium, 37° C. overnight, turbidity
# [13] = NCTC12201 strain (VRE), Heart Infusion Broth medium, 37° C. overnight, turbidity
SMILES,"MIC [1, 10] [µg/mL]",MIC [2] [µg/mL],"MIC [3, 11] [µg/mL]","MIC [4, 12] [µg/mL]","MIC [5, 13] [µg/mL]",MIC [6] [µg/mL],MIC [7] [µg/mL],MIC [8] [µg/mL],MIC [9] [µg/mL],MIC [1] [µg/mL],MIC ([3]; MRSA) [µg/mL],MIC ([4]; 5038STRAIN) [µg/mL],MIC ([5]; NCTC12201|VRE) [µg/mL],MIC [5] [µg/mL]
"CCCCCCCCCC(O)=C1C(=O)N(C(=O)Nc2ccccc2C(F)(F)F)c2ccccc21 [A054, N-(2-(trifluoromethyl)phenylaminocarbonyl)-3-decanoyl-2-oxyindole]",0.5,2,2,1,1,< 0.125,< 0.125,256,256,–,–,–,–,–
"CCCCCCCCOCC(O)=C1C(=O)N(C(C)=O)c2ccccc21 [A057, N-acetyl-3-octyloxyacetyl-2-oxyindole]",1,8,16,1,2,0.25,0.5,128,128,–,–,–,–,–
CCCCCCCCCCSCC(=O)c1c(O)c2cc(F)ccc2oc1=O [B027],–,2,–,–,–,< 0.125,0.25,256,4,0.25,1,0.25,< 0.125,–
"CCCCC1CCC(C(O)=C2C(=O)N(C(C)=O)c3ccccc32)CC1 (stereo not drawn) [A010, N-acetyl-3-(4-butylcyclohexylcarbonyl)-2-oxyindole]",0.5,2,1,0.5,0.5,0.25,1,256,256,–,–,–,–,–
"CCCCCCCCCCOCC(O)=C1C(=O)N(C(C)=O)c2ccc(Br)cc21 [A029, N-acetyl-5-bromo-3-decyloxyacetyl-2-oxyindole]",0.5,128,128,0.25,–,< 0.125,< 0.125,128,128,–,–,–,–,< 0.125
"CCCCCCCCCC(=O)N[C@@H](C)C(=O)c1c(O)c2ccccc2oc1=O [B011, 3-(2-decanoylaminopropionyl)-4-hydroxycoumarin]",256,256,256,256,256,2,1,256,256,–,–,–,–,–
"CCCCCCCCCCOCC(O)=C1C(=O)N(C(C)=O)c2ccc(F)cc21 [A023, N-acetyl-3-decyloxyacetyl-5-fluoro-2-oxyindole]",1,128,64,0.25,0.25,< 0.125,< 0.125,128,128,–,–,–,–,–
"CCCCC1CCC(C(O)=C2C(=O)N(C(=O)Nc3ccccc3)c3ccc(Br)cc32)CC1 (stereo not drawn) [A034, N-(phenylaminocarbonyl)-5-bromo-3-(4-butylcyclohexylcarbonyl)-2-oxyindole]",1,32,64,1,1,0.5,0.5,128,128,–,–,–,–,–
